Experimental data reported in patent US11648258B2, “Method and compounds for inhibiting the MCM complex and their application in cancer treatment” (priority 2012, dated 2023).

Columns and labels:
hMcm2 and hMcm6 [1] = target: T1, hMcm2 and hMcm6 (Homo sapiens, UniProt P49736+Q14566); assay: Immunostaining / GFP fluorescence microscopy of MCM nuclear localization in HeLa cells; type: cell-based; conditions: 24 hrs
T1 construct: the endogenous hMcm2 and hMcm6 were detected by specific antibodies against these proteins; endogenous in cells; host or cells: HeLa
T1 sequence (P49736 2-904): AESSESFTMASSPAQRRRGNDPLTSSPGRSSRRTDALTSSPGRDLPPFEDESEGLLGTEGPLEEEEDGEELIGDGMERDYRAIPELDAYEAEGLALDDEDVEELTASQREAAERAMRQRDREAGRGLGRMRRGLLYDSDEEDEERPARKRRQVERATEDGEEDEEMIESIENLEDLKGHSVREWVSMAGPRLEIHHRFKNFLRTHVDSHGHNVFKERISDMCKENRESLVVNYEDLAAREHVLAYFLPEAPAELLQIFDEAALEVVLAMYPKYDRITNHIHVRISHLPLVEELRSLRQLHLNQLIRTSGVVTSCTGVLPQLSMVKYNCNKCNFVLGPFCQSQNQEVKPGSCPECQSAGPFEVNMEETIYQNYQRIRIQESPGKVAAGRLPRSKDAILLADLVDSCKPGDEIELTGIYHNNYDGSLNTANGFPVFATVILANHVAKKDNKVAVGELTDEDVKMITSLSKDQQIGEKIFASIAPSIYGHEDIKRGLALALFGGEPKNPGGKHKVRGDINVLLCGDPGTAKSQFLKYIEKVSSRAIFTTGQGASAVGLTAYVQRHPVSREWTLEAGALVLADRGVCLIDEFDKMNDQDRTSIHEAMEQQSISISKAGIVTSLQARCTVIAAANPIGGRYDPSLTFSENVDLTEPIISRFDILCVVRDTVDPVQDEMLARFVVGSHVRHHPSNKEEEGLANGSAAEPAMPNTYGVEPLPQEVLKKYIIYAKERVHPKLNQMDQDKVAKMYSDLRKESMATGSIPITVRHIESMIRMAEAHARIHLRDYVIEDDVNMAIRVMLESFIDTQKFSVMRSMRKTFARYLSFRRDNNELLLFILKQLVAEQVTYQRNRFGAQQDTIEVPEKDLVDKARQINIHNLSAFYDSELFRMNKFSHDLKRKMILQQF
T1 sequence (Q14566 whole entry): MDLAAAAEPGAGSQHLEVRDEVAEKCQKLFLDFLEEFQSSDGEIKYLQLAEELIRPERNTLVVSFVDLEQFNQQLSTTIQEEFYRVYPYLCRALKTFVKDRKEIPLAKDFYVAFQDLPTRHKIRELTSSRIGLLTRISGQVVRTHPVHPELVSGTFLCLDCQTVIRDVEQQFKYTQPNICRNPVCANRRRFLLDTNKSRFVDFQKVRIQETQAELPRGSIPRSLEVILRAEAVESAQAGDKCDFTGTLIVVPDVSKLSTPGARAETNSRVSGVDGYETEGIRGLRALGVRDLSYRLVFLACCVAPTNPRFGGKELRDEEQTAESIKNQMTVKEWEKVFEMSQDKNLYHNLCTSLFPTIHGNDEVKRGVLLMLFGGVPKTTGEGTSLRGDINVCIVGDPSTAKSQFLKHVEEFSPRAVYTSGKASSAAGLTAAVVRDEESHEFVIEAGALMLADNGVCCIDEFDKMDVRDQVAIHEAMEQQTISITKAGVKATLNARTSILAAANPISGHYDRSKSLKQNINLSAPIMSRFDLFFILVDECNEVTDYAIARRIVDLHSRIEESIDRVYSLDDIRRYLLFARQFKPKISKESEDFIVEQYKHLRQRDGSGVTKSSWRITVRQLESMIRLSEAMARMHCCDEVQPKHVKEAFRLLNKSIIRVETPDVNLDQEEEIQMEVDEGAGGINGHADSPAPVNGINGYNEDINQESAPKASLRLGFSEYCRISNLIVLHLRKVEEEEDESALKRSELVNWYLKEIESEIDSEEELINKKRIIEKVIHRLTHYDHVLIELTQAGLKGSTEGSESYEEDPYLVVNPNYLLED
Procedure: (§1) To study the effect of the anticancer compounds on the interaction between hMcm2 and hMcm6 in the cells, immunostaining was performed to detect the sub-cellular localization of the proteins. HeLa cells grown on cover slips (coated with poly-D-lysine) with or without drug treatment were fixed with 4% PFA in PBS at room temperature for 20 min. After permeabilization with 0.1% Triton X-100 and 1% BSA in PBS for 20 min, cells were blocked with 1% BSA and then incubated with rabbit anti-hMcm6 (Santa Cruz; 1:500) and mouse anti-hMcm2 (Becton Dickinson; 1:500) primary antibodies at room temperature for 1 hr. Cells were then incubated with Alexa Fluor 488-conjugated donkey […] antibody and Alexa Fluor 594-conjugated donkey anti-mouse antibody (Invitrogen; 1:500) at room temperature for 1 hr. Three washes with PBS were performed after each round of antibody incubation. Cells were then incubated with Hochest 33852 (Sigma Chemical Company; 1 μg/ml) at room temperature for 15 min for nuclear staining and washed with PBS three times again. At last, cells were mounted and observed under the fluorescence microscope (Nikon TE2000E).
(§2) Because pair-wise interactions among the MCM subunits are required for the MCM heterohexameric ring structure, which is essential for their import into the nucleus, disruption of the interaction between hMcm2 and hMcm6 should destroy the hexamer and result in failure of nuclear localization of MCM proteins. To test this, we employed both indirect fluorescence microscopy (immunostaining) using antibodies against the endogenous MCM proteins and direct fluorescence microscopy after transfection with plasmids to express hMcm2-GFP and hMcm6-GFP in the cells.
(§3) In immunostaining, HeLa cells were treated by 17beta-Deacetyltanghinin for 24 hrs, and the endogenous hMcm2 and hMcm6 were detected by specific antibodies against these proteins. […] In direct fluorescence microscopy, HeLa cells expressing hMcm2-GFP and hMcm6-GFP were treated with 17beta-Deacetyltanghinin for 36 hrs starting at 4 hrs post-transfection with the plasmids expressing hMcm2-GFP and hMcm6-GFP.

hMcm2 and hMcm6 [2] = assay: as above; type: cell-based, human; conditions: 36 hrs treatment starting 4 hrs post-transfection
Procedure: as §1, §2, §3

[3] = test system: cancer cells (HeLa, HepG2); assay: Flow cytometry / Annexin V staining (cell cycle, apoptosis) in cancer cells; type: cell-based, human
Procedure: Both floating and attached cells were collected and washed once with PBS. Cells were fixed in 70% ethanol for 1 hr to overnight at −20° C., washed thoroughly with PBS, and then stained in 50 μg/ml RNase A, 0.1% Triton X-100, 0.1 mM EDTA (pH 7.4), and 50 μg/ml propidium iodide for 30 min at 4° C. Samples were analyzed with the FACSort instrument (Becton Dickinson).
Moreover, inhibition of DNA replication and subsequent induction of apoptosis by 17beta-Deacetyltanghinin could be shown by flow cytometry. In FIG. 7. Hela cells were blocked at M phase by Nocodazole (Noc.; FIG. 7A), the G1/S transition by mimosine (MMS; FIG. 7B), or at early S phase by Hydroxyurea (HU; FIG. 7C) and then released into fresh medium in the presence of 17beta-Deacetyltanghinin (DAT). The cells at different time points after release were analyzed by follow cytometry. Ayn. means asynchronous cells. Untreated cells and cells treated with the solvent DMSO could complete M, G1 and S phases after release (FIG. 7A). […] Similarly, cells released from the Mimosine (MMS) arrest (at the G1/S transition; FIG. 7B) or Hydroxyurea (HU) arrest (in early S phase; FIG. 7C) could not finish S phase in the presence of 17beta-Deacetyltanghinin.
In FIG. 8A, flow cytometry was performed to analyze the DNA contents in HepG2 and L-02 cells treated with 17beta-Deacetyltanghinin at various concentrations for 24 hrs. In FIG. 8B, Hela cells were treated with 17beta-Deacetyltanghinin for 24 hrs and labeled with Annexin V-Cy3 (Arm. Cy3) for 20 min. Mitoxantrone (MTX), a clinical anticancer drug that can induce apoptosis in cancer cells, was used as a positive control.

COC1C(O)[C@H](O[C@H]2CC[C@]3(C)C4CC[C@]5(C)[C@@H](C6=CC(=O)OC6)CC[C@]5(O)[C@@]45O[C@H]5C[C@@H]3C2)OC(C)[C@@H]1O (stereo partly drawn) [17beta-Deacetyltanghinin, 3β-O-(3-O-methyl-6-deoxy-α-L-glucopyranosyl)-7β,8β-epoxy-14β-hydroxy-card-20(22)-enolide]
nuclear localization of endogenous hMcm2 and hMcm6 (immunostaining) (hMcm2 and hMcm6 [1]): impaired | localization of expressed hMcm2-GFP and hMcm6-GFP (direct fluorescence) (hMcm2 and hMcm6 [2]): some of the expressed hMcm2-GFP and hMcm6-GFP located in the cytoplasm | Annexin V staining (apoptosis) ([3]; HeLa cells, 24 hrs, Annexin V-Cy3): could be stained by Annexin V | cell cycle progression after release from Nocodazole arrest ([3]; HeLa cells, flow cytometry): could complete mitosis but could not enter S phase | induction of apoptosis (sub-G1 population, flow cytometry) ([3]; cancer cells): induced apoptotic cell death in cancer cells
